Measured values reported in patent publication US20230043863A1, “HETEROAROMATIC DERIVATIVES FOR USE AS REGULATOR, PREPARATION METHOD THEREFOR AND USE THEREOF” (JIANGSU HANSOH PHARMACEUTICAL GROUP CO., LTD., priority 2018, published 2023).
Where two headings read alike, the source gives them in different places.

Legend:
[1] = Balb/C mouse pharmacokinetics (plasma, colon, ileum); type: in vivo; details: male, po, Balb/C mice, p.o. 5 mg/kg; for Cmax: read-out: Blood concentration Cmax; for Tmax: read-out: Time to peak tmax; for AUC(0-t): read-out: Curve area AUC0-t; for MRT: read-out: Mean detention time MRT; for AUC(0-inf): read-out: Curve area AUC0-∞; for half-life: read-out: Half life period t1/2 (converted)
Source text: Balb/C mouse was used as the test animal, the pharmacokinetic behavior in mice (plasma and colon, ileum tissue) was studied after oral administering the embodiment 1, embodiment 60, embodiment 169, embodiment 170, embodiment 171, embodiment 179, embodiment 191, embodiment 213, embodiment 214, embodiment 237, embodiment 238, embodiment 244, embodiment 246, embodiment 247, embodiment 257, embodiment 260, embodiment 262, embodiment 263, embodiment 267, embodiment 277, embodiment 278, embodiment 279, embodiment 288, embodiment 295, embodiment 299 and embodiment 301 at a dose of 5 mg/kg. After analyzing the drug concentration in the colon and ileum, the ratio of the drug concentration in the colon to that in ileum, and the ratio of the drug concentration in the colon to that in the plasma, the compounds with excellent PK were selected for further research.
12 Balb/C mice in each group, male, Shanghai Jiesjie Experimental Animal Co., Ltd., animal production license number (SCXK (Shanghai) 2013-0006 N0.311620400001794).
12 Balb/C mice in each group, male; p.o. after one night fast; the dose was 5 mg/kg; the administration volume was 10 mL/kg.
At 0, 0.5, 1, 2, 3, 5 and 7 hours before and after the administration, the mice were executed by CO2 and 0.2 mL of blood was collected from the heart, placed in an EDTA-K2 test tube, and centrifuged at 6000 rpm at 4° C. for 6 minutes to separate the plasma, which was then stored at −80° C. The ileum was taken close to the cecum end with a length of about 4-5 cm, and the colon was also taken close to the cecum end with a length of about 2-3 cm, weighed and placed in a 2 mL centrifuge tube, then stored at −80° C.
1) 40 uL of plasma sample was precipitated by adding 160 uL of acetonitrile, mixed and centrifuged at 3500×g for 5-20 minutes.
2) 30 μL of plasma and intestinal homogenate sample were precipitated by adding 90 of acetonitrile containing internal standard (100 ng/mL), mixed and centrifuged at 13000 rpm for 8 minutes.
3) 70 μL of the supernatant solution after treatment was collected and 70 μL of water was added thereto, vortexed and mixed for 10 minutes, and then 20 μL was collected to analyze the concentration of the test compound by LC/MS/MS. LC/MS/MS analysis instrument: AB Sciex API 4000 Qtrap.
Liquid phase conditions: Shimadzu LC-20AD Pump
Chromatographic column: Agilent ZORBAX XDB-C18 (50×2.1 mm, 3.5 μm) mobile phase: 0.1% formic acid aqueous solution as A solution, acetonitrile as B solution
Elution time: 0-4.0 minutes, the eluent is as follows:
The main pharmacokinetic parameters were calculated with WinNonlin 6.1, and the results of mouse pharmacokinetic experiments are shown in Table 3:
NA refers to none detected or not being tested (the detection limit of blood concentration was 1 ng/mL, when the Cmax in the blood test is NA, then NA in the blood test index refers to none detected; when the Cmax in the blood test is higher than the quantitative limit 1 ng/mL, then NA in the blood test index refers to not being tested; NA in the tissues (colon and ileum) refers to not being tested).

JAK1 = JAK1 (Homo sapiens, UniProt P23458); test: JAK kinase activity inhibition, TR-FRET (JAK1); type: biochemical; details: TR-FRET kinase assay
How it was run: (§1)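 TR-FRET read (≈620 and 665 nm) after EDTA quench and 1-24 h antibody detection at RT. Kinase 0.1-20 nM, peptide substrate + ATP, 0.5-5 h RT reaction in HEPES 50-250 mM, MgCl2 5-20 mM. IC50 from 4-parameter fit vs DMSO and no-kinase controls.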

[2] = test system: JAK-STAT signal pathway of U266 cells; test: Inhibition of cellular JAK-STAT signal pathway (STAT3 phosphorylation) in U266 cells; type: cell-based, human; details: Homo sapiens, U-266, INF-a 1000 U/mL stimulation
How it was run: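 U266 cells (100-300 K/well) preincubated 2 h at room temperature with serially diluted compound, then stimulated 15 min with IFN-α at 1000 U/mL final. After lysis, STAT3 phosphorylation read by LANCE Ultra TR-FRET (Eu antibody 0.5 nM, ULight antibody 5 nM, overnight) at 665 nm; IC50 from 4-parameter fit of inhibition versus DMSO and negative controls.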

TYK2 = TYK2 (Homo sapiens, UniProt P29597); test: JAK kinase activity inhibition, TR-FRET (TYK2); type: biochemical; details: TR-FRET kinase assay
How it was run: as §1

TYK2, sequence (P29597 whole entry): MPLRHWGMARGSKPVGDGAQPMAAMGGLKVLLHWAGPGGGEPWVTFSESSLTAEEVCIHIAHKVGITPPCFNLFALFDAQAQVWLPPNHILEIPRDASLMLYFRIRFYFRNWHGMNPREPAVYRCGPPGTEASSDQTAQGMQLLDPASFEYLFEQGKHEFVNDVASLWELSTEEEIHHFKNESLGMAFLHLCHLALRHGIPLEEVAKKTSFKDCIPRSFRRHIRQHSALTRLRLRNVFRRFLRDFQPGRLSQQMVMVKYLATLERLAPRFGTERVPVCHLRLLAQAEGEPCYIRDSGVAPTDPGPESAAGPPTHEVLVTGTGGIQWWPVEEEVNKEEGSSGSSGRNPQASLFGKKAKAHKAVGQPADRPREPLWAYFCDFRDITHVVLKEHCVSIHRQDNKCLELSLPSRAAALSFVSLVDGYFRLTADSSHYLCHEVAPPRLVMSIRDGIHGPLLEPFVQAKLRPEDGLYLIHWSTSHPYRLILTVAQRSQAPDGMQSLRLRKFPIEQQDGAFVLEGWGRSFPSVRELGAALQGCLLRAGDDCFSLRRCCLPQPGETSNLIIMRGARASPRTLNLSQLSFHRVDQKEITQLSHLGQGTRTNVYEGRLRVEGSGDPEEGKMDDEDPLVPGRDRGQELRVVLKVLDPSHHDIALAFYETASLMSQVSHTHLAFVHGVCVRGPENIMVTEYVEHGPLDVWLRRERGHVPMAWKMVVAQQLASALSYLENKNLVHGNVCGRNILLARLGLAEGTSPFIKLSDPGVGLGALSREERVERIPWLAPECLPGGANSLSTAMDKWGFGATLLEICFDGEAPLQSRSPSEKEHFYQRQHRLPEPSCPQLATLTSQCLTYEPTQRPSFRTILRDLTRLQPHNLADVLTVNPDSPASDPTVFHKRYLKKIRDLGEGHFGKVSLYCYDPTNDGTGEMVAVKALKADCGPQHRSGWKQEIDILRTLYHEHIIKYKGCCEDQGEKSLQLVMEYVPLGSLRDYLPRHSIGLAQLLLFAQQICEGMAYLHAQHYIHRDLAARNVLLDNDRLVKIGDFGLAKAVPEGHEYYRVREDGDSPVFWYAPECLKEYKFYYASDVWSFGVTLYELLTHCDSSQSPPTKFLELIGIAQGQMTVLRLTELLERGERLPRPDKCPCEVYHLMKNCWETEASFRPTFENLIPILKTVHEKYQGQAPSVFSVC
JAK1, sequence (P23458 whole entry): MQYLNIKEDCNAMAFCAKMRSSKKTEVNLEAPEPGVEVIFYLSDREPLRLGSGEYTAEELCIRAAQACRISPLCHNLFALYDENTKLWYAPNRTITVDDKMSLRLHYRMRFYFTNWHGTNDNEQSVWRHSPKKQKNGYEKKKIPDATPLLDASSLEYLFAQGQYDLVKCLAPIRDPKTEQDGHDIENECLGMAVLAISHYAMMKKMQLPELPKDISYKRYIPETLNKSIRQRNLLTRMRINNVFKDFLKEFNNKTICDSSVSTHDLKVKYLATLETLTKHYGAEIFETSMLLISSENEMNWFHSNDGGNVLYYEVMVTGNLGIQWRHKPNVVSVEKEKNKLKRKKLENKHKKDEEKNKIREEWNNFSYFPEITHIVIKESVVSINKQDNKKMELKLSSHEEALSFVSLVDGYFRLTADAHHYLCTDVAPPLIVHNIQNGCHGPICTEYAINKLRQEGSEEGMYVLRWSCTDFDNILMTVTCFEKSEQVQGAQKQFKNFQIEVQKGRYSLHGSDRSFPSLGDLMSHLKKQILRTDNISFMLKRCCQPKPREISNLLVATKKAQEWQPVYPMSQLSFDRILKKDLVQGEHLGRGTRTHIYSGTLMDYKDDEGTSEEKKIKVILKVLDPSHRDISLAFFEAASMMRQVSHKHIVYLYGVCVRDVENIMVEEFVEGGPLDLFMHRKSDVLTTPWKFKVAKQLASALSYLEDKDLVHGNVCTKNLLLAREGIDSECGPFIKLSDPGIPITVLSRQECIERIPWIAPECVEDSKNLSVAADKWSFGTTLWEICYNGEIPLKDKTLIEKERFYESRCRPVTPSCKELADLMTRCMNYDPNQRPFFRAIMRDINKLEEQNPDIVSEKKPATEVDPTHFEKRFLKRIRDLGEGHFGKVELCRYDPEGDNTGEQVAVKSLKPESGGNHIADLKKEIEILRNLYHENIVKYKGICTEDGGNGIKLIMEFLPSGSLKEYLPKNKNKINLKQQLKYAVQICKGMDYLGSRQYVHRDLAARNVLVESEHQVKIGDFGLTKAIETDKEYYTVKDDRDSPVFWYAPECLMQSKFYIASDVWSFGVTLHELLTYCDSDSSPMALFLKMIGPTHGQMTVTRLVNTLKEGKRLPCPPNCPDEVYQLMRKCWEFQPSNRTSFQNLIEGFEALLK

| SMILES | Cmax ([1]; plasma, blood) | Tmax ([1]; plasma, blood) | Cmax ([1]; colon) | AUC(0-t) ([1]; colon) | MRT ([1]; colon) | Tmax ([1]; colon) | Cmax ([1]; ileum) | AUC(0-t) ([1]; ileum) | AUC(0-inf) ([1]; ileum) | half-life ([1]; ileum) | MRT ([1]; ileum) | Tmax ([1]; ileum) | IC50 (JAK1) | IC50 [2] | IC50 (TYK2) | AUC(0-t) ([1]; plasma, blood) | MRT ([1]; plasma, blood) | further results |
| --- | --- | --- | --- | --- | --- | --- | --- | --- | --- | --- | --- | --- | --- | --- | --- | --- | --- | --- |
| Cc1cc(Nc2nc(N[C@@H]3C[C@H]4CC[C@@H](C3)N4CCC#N)nc3cc(N4CCOCC4)ccc23)n[nH]1 [Embodiment 191, 3-((3-exo)-3-((4-((5-methyl-1H-pyrazol-3-yl)amino)-7-morpholinoquinazolin-2-yl)amino)-8-azabicyclo[3.2.1]oct-8-yl)propionitrile] | 0.81 ng/mL | 1 h | 3350 ng/mL | 10600 ng·h/mL | 4.59 h | 5 h | 32600 ng/mL | 51500 ng·h/mL | 51700 ng·h/mL | 1.39 h | 1.13 h | 1 h | 0.41 nM | 2.8 nM | 0.94 nM | – | – | – |
| Cc1cc(Nc2nc(N[C@@H]3C[C@H]4CC[C@@H](C3)N4C(=O)CN3CCOCC3)nc3sccc23)n[nH]1 [Embodiment 244, 1-((3-exo)-3-((4-((5-methyl-1H-pyrazol-3-yl)amino)thieno[2,3-d]pyrimidin-2-yl)amino)-8-azabicyclo[3.2.1]oct-8-yl)-2-morpholinoethane-1-one] | 12 ng/mL | 3 h | 1190 ng/mL | 4900 ng·h/mL | 4.38 h | 7 h | 9010 ng/mL | 22600 ng·h/mL | 22600 ng·h/mL | 0.66 h | 1.83 h | 1 h | 1.15 nM | 3.79 nM | 2.45 nM | 18 ng·h/mL | 2.12 h | – |
| Cc1cc(Nc2nc(N[C@@H]3C[C@H]4CCC[C@@H](C3)N4C(=O)c3ccncc3)nc3sccc23)n[nH]1 [Embodiment 262, ((3-exo)-3-((4-((5-methyl-1H-pyrazol-3-yl)amino)thieno[2,3-d]pyrimidin-2-yl)amino)-9-azabicyclo[3.3.1]non-9-yl)(pyridin-4-yl)methanone] | 8.01 ng/mL | 2 h | 1240 ng/mL | 3940 ng·h/mL | 3.72 h | 3 h | 22300 ng/mL | 40200 ng·h/mL | 40300 ng·h/mL | 0.49 h | 1.34 h | 1 h | 0.07 nM | 9.47 nM | 1.35 nM | 13.4 ng·h/mL | 1.77 h | AUC(0-inf) ([1]; colon): 4520 ng·h/mL; half-life ([1]; colon): 1.69 h |
| Cc1cc(Nc2nc(N[C@@H]3C[C@H]4CCC[C@@H](C3)N4C(=O)c3nccn3C)nc3sccc23)n[nH]1 [Embodiment 263, (1-methyl-1H-imidazol-2-yl) ((3-exo)-3-((4-((5-methyl-1H-pyrazol-3-yl)amino)thieno[2,3-d]pyrimidin-2-yl)amino)-9-azabicyclo[3.3.1]non-9-yl)methanone] | 12.7 ng/mL | 3 h | 5540 ng/mL | 15500 ng·h/mL | 3.58 h | 3 h | 5490 ng/mL | 9910 ng·h/mL | 9940 ng·h/mL | 0.82 h | 1.36 h | 1 h | 0.11 nM | 4.07 nM | 0.22 nM | 57.6 ng·h/mL | 3.51 h | – |
| Cc1cc(Nc2nc(N[C@@H]3C[C@H]4CCC[C@@H](C3)N4S(=O)(=O)c3ccccn3)nc3sccc23)n[nH]1 [Embodiment 267] | – | – | 1270 ng/mL | 5610 ng·h/mL | 4.4 h | 5 h | 12200 ng/mL | 20700 ng·h/mL | 20700 ng·h/mL | 0.53 h | 1.24 h | 1 h | 0.13 nM | 18 nM | 0.39 nM | – | – | – |
| Cc1cc(Nc2nc(N[C@@H]3C[C@H]4CCC[C@@H](C3)N4C(=O)CN3CCOCC3)nc3ccsc23)n[nH]1 [Embodiment 288, 1-((3-exo)-3-((4-((5-methyl-1H-pyrazol-3-yl)amino)thieno[3,2-d]pyrimidin-2-yl)amino)-9-azabicyclo[3.3.1]non-9-yl)-2-morpholinoethane-1-one] | 11 ng/mL | 2 h | 676 ng/mL | 2900 ng·h/mL | 3.91 h | 3 h | 7380 ng/mL | 17600 ng·h/mL | – | – | 2.89 h | 3 h | 0.27 nM | 4.03 nM | 8.09 nM | 21.5 ng·h/mL | 2.5 h | AUC(0-inf) ([1]; plasma, blood): 24.5 ng·h/mL; half-life ([1]; plasma, blood): 2.6 h |
| Cc1cc(Nc2nc(N[C@@H]3C[C@H]4CC[C@@H](C3)N4CCC#N)nc3c2cnn3C)n[nH]1 [Embodiment 295, 3-((3-exo)-3-((1-methyl-4-((5-methyl-1H-pyrazol-3-yl)amino)-1H-pyrazolo[3,4-d]pyrimidin-6-yl)amino)-8-azabicyclo[3.2.1]oct-8-yl)propionitrile] | 6.54 ng/mL | 2 h | 1030 ng/mL | 3390 ng·h/mL | 3.82 h | 3 h | 4300 ng/mL | 10700 ng·h/mL | – | – | 2.69 h | 3 h | 0.3 nM | 3.63 nM | 10.8 nM | 10.4 ng·h/mL | 1.77 h | – |
| Cc1cc(Nc2nc(N[C@@H]3C[C@@H]4CN(CCC#N)C[C@@H]4C3)nc3ccsc23)n[nH]1 [Embodiment 299, 3-(cis-5-((4-((5-methyl-1H-pyrazol-3-yl)amino)thieno[3,2-d]pyrimidin-2-yl)amino)hexahydrocyclopentadieno[c]pyrrole-2(1H)-yl)propionitrile] | 6.01 ng/mL | 0.5 h | 295 ng/mL | 948 ng·h/mL | 4.94 h | 7 h | 531 ng/mL | 1320 ng·h/mL | 1350 ng·h/mL | 0.89 h | 3.37 h | 3 h | 0.28 nM | 2.46 nM | 0.56 nM | 10.6 ng·h/mL | 1.92 h | AUC(0-inf) ([1]; plasma, blood): 17.8 ng·h/mL; half-life ([1]; plasma, blood): 3.76 h |
